We go through 2 compounds from publication PMC10004267, “Resveratrol, a New Allosteric Effector of Hemoglobin, Enhances Oxygen Supply Efficiency and Improves Adaption to Acute Severe Hypoxia” (Molecules, 2023).

SMILES strings stand for the structures.

Assay [1] has as its target T1, hemoglobin of adult (HbA) (Homo sapiens, UniProt P68871).
T1 construct: gene HBB; HbA tetramer purified from human whole blood; with hemoglobin subunit alpha (HBA1)
Briefly: SPR (OpenSPR, HbA immobilized), control compound. The assay is classed as binding.

Assay [2] deals with T2, hemoglobin of adult (HbA) (Homo sapiens, UniProt P68871+P69905).
T2 construct: gene HBA1; HbA tetramer purified from human whole blood; with hemoglobin subunit beta (HBB)
Briefly: SPR (OpenSPR, HbA immobilized on COOH chip, one-to-one model); supported by thermal shift (Tm1) and P50 shift. The assay is classed as binding.

Usually Kd stands for a measure of binding affinity in units of concentration.

T2 sequence (P69905 2-142): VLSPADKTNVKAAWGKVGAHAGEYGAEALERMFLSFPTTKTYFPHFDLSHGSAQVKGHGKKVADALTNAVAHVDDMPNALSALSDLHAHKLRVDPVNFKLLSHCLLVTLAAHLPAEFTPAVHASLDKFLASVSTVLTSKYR
T2 sequence (P68871 2-147): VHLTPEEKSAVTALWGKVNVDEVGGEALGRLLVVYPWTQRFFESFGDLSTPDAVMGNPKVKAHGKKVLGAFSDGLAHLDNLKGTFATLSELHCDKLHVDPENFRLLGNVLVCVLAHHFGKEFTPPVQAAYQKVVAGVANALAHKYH
T1 sequence (P68871 2-147): as above
T1 sequence (P69905 2-142 partner): as the sequence (P69905 2-142) above

In turn, `O=C(O)C(COP(=O)(O)O)OP(=O)(O)O` (centres unmarked) [2,3-DPG, 2,3-Diphosphoglycerate] came in with a Kd in assay [1] of 462 µM.
With `Oc1ccc(/C=C/c2cc(O)cc(O)c2)cc1` [RSV, 3,4′,5-trihydroxy-trans-stilbene], in assay [2], the Kd came out at 48.6 µM.
